Square brackets hold non-standard residues; d marks the D form. Ends that are not written are not given here. Cit = NC(=O)NCCC[C@H](N)C(=O)O

Consider four substances from US10774129B2, “Complexes of types of MHC class II that bind to collagen type II peptides and their use on diagnosis and treatment” (FRAUNHOFER-GESELLSCHAFT ZUR FÖRDERUNG DER ANGEWANDTEN …, priority 2011, dated 2020).

For experiment [1], the system named is MHC class II of the HLA DRB1 1001 genotype. In words: in vitro binding assay to recombinant MHC class II protein. Also on record: species or system human; key to Binds to 1001: *0101: the listing of the allele in the column for the allele indicates binding; *0401: “0401” in the “Binds to 0401” column indicates binding of the peptide to MHC class II of the HLA DRB1 0401 genotype; *0404: the listing of the allele in the column for the allele indicates binding; *0405: the listing of the allele in the column for the allele indicates binding; *0408: the listing of the allele in the column for the allele indicates binding; *1001: the listing of the allele in the column for the allele indicates binding; “no” or no data indicates no binding to a protein of that genotype. The conditions noted are these: recombinant MHC class II, HLA DRB1 1001. An excerpt: (§1) Binding of the peptides to recombinant MHC class II protein of various alleles has been confirmed in an in vitro binding assay and the results are shown in Tables 1, 2 and 3. In table 1, 2 and 3, the listing of the allele in the column for the allele indicates binding. Thus “0401” in the “Binds to 0401” column indicates binding of the peptide to MHC class II of the HLA DRB1 0401 genotype. “no” or no data indicates no binding to a protein of that genotype. Empty boxes indicate no binding or that binding has not been determined. In the tables it is also indicated if the peptide has a citrulline residue, where “yes” indicates the presence of a citrulline residue and “no” indicates the absence of a citrulline residue.
Chain of MHC class II of the HLA DRB1 1001 genotype (P01911 30-124 with the stated changes limits assumed): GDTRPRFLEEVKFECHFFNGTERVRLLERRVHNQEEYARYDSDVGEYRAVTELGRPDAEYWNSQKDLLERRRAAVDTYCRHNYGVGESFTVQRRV
Chain of MHC class II of the HLA DRB1 1001 genotype (P01903 26-109 limits assumed, further chain): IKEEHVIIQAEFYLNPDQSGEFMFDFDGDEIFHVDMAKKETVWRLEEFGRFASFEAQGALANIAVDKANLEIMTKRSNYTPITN

The test system of experiment [2] is MHC class II of the HLA DRB1 0408 genotype. Described as above. Also on record: species or system human; key: *0101: the listing of the allele in the column for the allele indicates binding; *0401: “0401” in the “Binds to 0401” column indicates binding of the peptide to MHC class II of the HLA DRB1 0401 genotype; *0404: the listing of the allele in the column for the allele indicates binding; *0405: the listing of the allele in the column for the allele indicates binding; *0408: the listing of the allele in the column for the allele indicates binding; *1001: the listing of the allele in the column for the allele indicates binding; “no” or no data indicates no binding to a protein of that genotype.
Excerpt: as §1

For “type II collagen 268: human collagen type II peptide, not citrullinated (PQGPRGDKGEAGEPG; listed as Homo sapiens)”, in experiment [1], the “Binds to 1001” value is “*1001”.

In the case of “type II collagen 263: human collagen type II peptide, not citrullinated (GDRGEAGAQGPMGPS; listed as Homo sapiens)”, the “Binds to 1001” value in experiment [1] was “*1001”.

Take “type II collagen 362: citrullinated human collagen type II peptide (PKGANGDPG[Cit]PGEPG; listed as Homo sapiens)”: the “Binds to 1001” value in experiment [1] was “*1001”.

As for “type II collagen 384: citrullinated human collagen type II peptide (QGP[Cit]GLPGTPGTDGP; listed as Homo sapiens)”, the “Binds to 0408” value in experiment [2] is “*0408”. The “Binds to 1001” value in experiment [1] is “*1001”.
